Several values for one entry are separate records, joined by “and”; a condition that tells them apart may be missing. Equal values may be shown once.
System: SUM149PT spheroids with HUVEC/MSC, viability
Assay: Anticancer human tumor SUM149PT cell line growth inhibition [GQUAD];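 note: spheroids exposed to drugs for seven days before readout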;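 for viability, T/C: percent viability relative to DMSO vehicle control taken as 100%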
Settings: for viability, T/C: stronger effect = lower value
Excerpt: DNA G-quadruplex Stabilizer Agents in Combinations in Complex Spheroids
A high-throughput screen of multi-cell type tumor spheroids was designed to identify active combinations of DNA G-quadruplex stabilizer agents and targeted small molecules. Complex spheroids include a stromal component modeled by human endothelial cells (HUVEC) and fibroblasts modeled by human mesenchymal stem cells (MSCs). The concentration ranges selected for each drug and investigational agent were based upon clinically achievable concentrations if the clinical Cmax of the agent was known.
Compounds. The drugs and investigational agents: pidnarulex (CX-5461; NSC782164), APTO-253 (NSC789042), BRACO-19 (NSC847499), peposertib (NSC802822), ceralasertib (NSC780249), elimusertib (NSC800525), camonsertib (NSC841442), AZD-1390 (NSC803789), olaparib (NSC753686), talazoparib (NSC767125), ART-558 (NSC835418), sotorasib (NSC818433), MRTX-1133 (NSC836407), SN-38 (NSC673596), topotecan (NSC609699), etoposide (NSC141540), doxorubicin (NSC123127), gemcitabine (NSC613327), 5-fluorouracil (NSC19893), paclitaxel (NSC125973), vemurafenib (NSC761431), panobinostat (NSC761190), R-306465 (JNJ-16241199; NSC773264), adavosertib (NSC754352), TP-3654 (NSC805149), carboplatin (NSC241240), KSQ-4279 (NSC840948), and staurosporine (NSC755774) were obtained from the National Cancer Institute (NCI) Developmental Therapeutics Program Chemical Repository (34). The FDA-approved anticancer drug set is available from the NCI Developmental Therapeutics Program. […] The stock solutions were prepared in dimethyl sulfoxide (DMSO, Sigma-Aldrich, St. Louis, MO, cat. D2650) at 800-fold the tested concentration and stored at -70 degrees C prior to their use. All drugs and investigational agents were tested over a range starting from a high concentration at or near the clinical Cmax and decreasing in half-log increments. If the clinical Cmax for an agent had not been determined, the highest concentration tested was 10 microM.
2.3 Cell Culture. All cells were maintained in an incubator at 37 degrees C and 5% CO2 with 95% humidity. The PDC lines were cultured according to standard operating procedures established by the NCI PDMR. All PDCs were thawed and cultured in Matrigel-coated flasks prepared with a working solution of 1X Ham's F-12 nutrient mix, without supplementation (Invitrogen, cat. 11765054), 100 U/mL penicillin-streptomycin (Invitrogen, cat. 15140122), and 2.5% Matrigel (Corning Inc., cat. 354248) for the first three passages. The 857933-349-R-J2-PDC line was cultured in 6C/Colon 1B media, which includes advanced DMEM/F-12 (Thermo Fisher Scientific, cat. 12634028), 10 mM HEPES (Thermo Fisher Scientific, cat. 15630080), 1X GlutaMAX supplement (Thermo Fisher Scientific, cat. 35050061), 0.1 mg/mL primocin (InvivoGen, cat. ant-pm-2), 10% defined fetal bovine serum, heat inactivated (HyClone Laboratories Inc., cat. SH30070.03HI), 50% L-WRN conditioned media (ATCC, cat. CRL-3276), 1.25 mM N-Acetyl-L-cysteine (Sigma-Aldrich, cat. A9165), 10 mM nicotinamide (Sigma-Aldrich, cat. N0636), 1X B-27 supplement (Thermo Fisher Scientific, cat. 17504044), 1X N-2 supplement (Thermo Fisher Scientific, cat. 17502048), 10 microM Y-27632 dihydrochloride (Tocris Bioscience, cat. 1254), and 50 ng/mL human EGF recombinant protein (Thermo Fisher Scientific, cat. PHG0311). The 485176-168-R4-J1-PDC line was cultured in Panc media, which includes all 6C/Colon 1B media components plus 100 ng/mL human FGF-10 (Thermo Fisher Scientific, cat. 100-26), 500 nM SB-431542 (Selleckchem, cat. S1067), and gastrin (Tocris, cat. 3006).
[…]

[1] = curve of first compound, second compound 0.0316 µM
[2] = curve of first compound, second compound 0.1 µM
[3] = curve of first compound, second compound 0.316 µM
[4] = curve of first compound, second compound 1 µM
[5] = curve of first compound, second compound 3.16 µM
[6] = curve of first compound, second compound 10 µM
[7] = second compound 0.0316 µM, first compound 0.0316 µM
[8] = second compound 0.0316 µM, first compound 0.1 µM
[9] = second compound 0.0316 µM, first compound 0.316 µM
[10] = second compound 0.0316 µM, first compound 1 µM
[11] = second compound 0.0316 µM, first compound 3.16 µM
[12] = second compound 0.0316 µM, first compound 10 µM
[13] = second compound 0.1 µM, first compound 0.0316 µM
[14] = second compound 0.1 µM, first compound 0.1 µM
[15] = second compound 0.1 µM, first compound 0.316 µM
[16] = second compound 0.1 µM, first compound 1 µM
[17] = second compound 0.1 µM, first compound 3.16 µM
[18] = second compound 0.1 µM, first compound 10 µM
[19] = second compound 0.316 µM, first compound 0.0316 µM
[20] = second compound 0.316 µM, first compound 0.1 µM
[21] = second compound 0.316 µM, first compound 0.316 µM
[22] = second compound 0.316 µM, first compound 1 µM
[23] = second compound 0.316 µM, first compound 3.16 µM
[24] = second compound 0.316 µM, first compound 10 µM
[25] = second compound 1 µM, first compound 0.0316 µM
[26] = second compound 1 µM, first compound 0.1 µM
[27] = second compound 1 µM, first compound 0.316 µM
[28] = second compound 1 µM, first compound 1 µM
[29] = second compound 1 µM, first compound 3.16 µM
[30] = second compound 1 µM, first compound 10 µM
[31] = second compound 3.16 µM, first compound 0.0316 µM
[32] = second compound 3.16 µM, first compound 0.1 µM
[33] = second compound 3.16 µM, first compound 0.316 µM
[34] = second compound 3.16 µM, first compound 1 µM
[35] = second compound 3.16 µM, first compound 3.16 µM
[36] = second compound 3.16 µM, first compound 10 µM
[37] = second compound 10 µM, first compound 0.0316 µM
[38] = second compound 10 µM, first compound 0.1 µM
[39] = second compound 10 µM, first compound 0.316 µM
[40] = second compound 10 µM, first compound 1 µM
[41] = second compound 10 µM, first compound 3.16 µM
[42] = second compound 10 µM, first compound 10 µM

For O=C(NO)c1cnc(N2CCN(S(=O)(=O)c3ccc4ccccc4c3)CC2)nc1 + Cc1cnc(CNC(=O)c2c(=O)c3ccc(N4CCCN(C)CC4)nc3n3c2sc2ccccc23)cn1, the IC50 [1] was 124 nM, the IC50 [2] was 184 nM and the IC50 [3] was 121 nM. For the same compound, the IC50 [4] was < 31.6 nM, the IC50 [5] was < 31.6 nM and the IC50 [6] was < 31.6 nM. For the same compound, the viability, T/C [7] was 90.1%, the viability, T/C [8] was 47.7% and the viability, T/C [9] was 42.7%. The viability, T/C [10] was 0.16%, the viability, T/C [11] was 0.95% and the viability, T/C [12] was 3.31%. It also gave a viability, T/C [13] of 65.5%, a viability, T/C [14] of 52.9% and a viability, T/C [15] of 41.9%. It also gave a viability, T/C [16] of 0.15%, a viability, T/C [17] of 0.63% and a viability, T/C [18] of 2.26%. It also gave a viability, T/C [19] of 51.9%, a viability, T/C [20] of 54% and a viability, T/C [21] of 35.9%. It also gave a viability, T/C [22] of 2.48%, a viability, T/C [23] of 0.95% and a viability, T/C [24] of 0.63%. It also gave a viability, T/C [25] of 48.3%, a viability, T/C [26] of 45.7% and a viability, T/C [27] of 34%. The viability, T/C [28] was 1.85%, the viability, T/C [29] was 1.22% and the viability, T/C [30] was 0.11%. It also gave a viability, T/C [31] of 39%, a viability, T/C [32] of 37.8% and a viability, T/C [33] of 27.7%. It also gave a viability, T/C [34] of 0.11%, a viability, T/C [35] of 0.1% and a viability, T/C [36] of 0.32%. It also gave a viability, T/C [37] of 0.2%, a viability, T/C [38] of 2.04% and a viability, T/C [39] of 1.16%. It also gave a viability, T/C [40] of 0.97%, a viability, T/C [41] of 0.39% and a viability, T/C [42] of 2.62%.

With CC(=O)O[C@H]1C(=O)[C@@]2(C)[C@H]([C@H](OC(=O)c3ccccc3)[C@]3(O)C[C@H](OC(=O)[C@H](O)[C@@H](NC(=O)c4ccccc4)c4ccccc4)C(C)=C1C3(C)C)[C@]1(OC(C)=O)CO[C@@H]1C[C@@H]2O the viability, T/C (compound 0.0316 µM) was 29.9% and 31.4% and 22.4%, the viability, T/C (compound 0.1 µM) was 25.7% and 26.3% and 18.2% and the viability, T/C (compound 0.316 µM) was 25.7% and 20.8% and 15.6%. For the same compound, the viability, T/C (compound 1 µM) was 22.3% and 19.5% and 11.7%, the viability, T/C (compound 3.16 µM) was 22.6% and 20.4% and 11% and the viability, T/C (compound 10 µM) was 26.4% and 22.7% and 16.2%. The IC50 (curve of compound) was < 31.6 nM.

In the case of CC1COCCN1c1cc(-c2ccnn2C)c2ccnc(-c3ccn[nH]3)c2n1 (stereo unspecified) + CN(C)c1ccc(Nc2c3ccc(NC(=O)CCN4CCCC4)cc3nc3cc(NC(=O)CCN4CCCC4)ccc23)cc1, the IC50 [1] is reported as 93.3 nM, the IC50 [2] is reported as 92.7 nM and the IC50 [3] is reported as 91.3 nM. The IC50 [4] was 89.7 nM, the IC50 [5] was 88.4 nM and the IC50 [6] was 65.7 nM. The viability, T/C [7] was 96.3%, the viability, T/C [8] was 46.9% and the viability, T/C [9] was 29.1%. It also gave a viability, T/C [10] of 23.2%, a viability, T/C [11] of 38.2% and a viability, T/C [12] of 28%. The viability, T/C [13] was 87.8%, the viability, T/C [14] was 47.3% and the viability, T/C [15] was 29.6%. It also gave a viability, T/C [16] of 29.4%, a viability, T/C [17] of 30% and a viability, T/C [18] of 36.1%. For the same compound, the viability, T/C [19] was 87.5%, the viability, T/C [20] was 46.8% and the viability, T/C [21] was 26%. For the same compound, the viability, T/C [22] was 26.5%, the viability, T/C [23] was 28.1% and the viability, T/C [24] was 29.2%. The viability, T/C [25] was 82.6%, the viability, T/C [26] was 46.6% and the viability, T/C [27] was 26.4%. For the same compound, the viability, T/C [28] was 23.7%, the viability, T/C [29] was 26.8% and the viability, T/C [30] was 29.4%. The viability, T/C [31] was 79%, the viability, T/C [32] was 46.5% and the viability, T/C [33] was 20.7%. The viability, T/C [34] was 23.5%, the viability, T/C [35] was 25.6% and the viability, T/C [36] was 24.2%. For the same compound, the viability, T/C [37] was 69.9%, the viability, T/C [38] was 38% and the viability, T/C [39] was 28.9%. For the same compound, the viability, T/C [40] was 24.9%, the viability, T/C [41] was 25.4% and the viability, T/C [42] was 21.9%.

With O=c1[nH]cc(F)c(=O)[nH]1 the viability, T/C (compound 0.0316 µM) was 103% and 95.7% and 106%, the viability, T/C (compound 0.1 µM) was 93.6% and 90.8% and 93.9% and the viability, T/C (compound 0.316 µM) was 108% and 110% and 101%. For the same compound, the viability, T/C (compound 1 µM) was 102% and 107% and 96%, the viability, T/C (compound 3.16 µM) was 56.9% and 55.7% and 61.6% and the viability, T/C (compound 10 µM) was 51.6% and 43.3% and 50.6%. For the same compound, the IC50 (curve of compound) was > 10000 nM and 5360 nM.

CN(C)c1ccc(Nc2c3ccc(NC(=O)CCN4CCCC4)cc3nc3cc(NC(=O)CCN4CCCC4)ccc23)cc1 was tested, and the viability, T/C (compound 0.0316 µM) was 102% [middle of 12 runs], the viability, T/C (compound 0.1 µM) was 101% [middle of 12 runs] and the viability, T/C (compound 0.316 µM) was 99.9% [middle of 11 runs]. For the same compound, the viability, T/C (compound 1 µM) was 90% [middle of 12 runs], the viability, T/C (compound 3.16 µM) was 86.2% [middle of 12 runs] and the viability, T/C (compound 10 µM) was 86% [middle of 12 runs]. The IC50 (compound alone, run of 03/26/2024) was > 10000 nM.

For CCc1c2c(nc3ccc(O)cc13)-c1cc3c(c(=O)n1C2)COC(=O)[C@]3(O)CC, the viability, T/C (compound 0.000999 µM) was 65.9% and 72.5% and 67.1%, the viability, T/C (compound 0.00316 µM) was 36% and 43.4% and 27.6% and the viability, T/C (compound 0.00999 µM) was 44% and 61.2% and 38.6%. The viability, T/C (compound 0.0316 µM) was 36% and 47.2% and 30.2%, the viability, T/C (compound 0.0999 µM) was 27% and 38.1% and 23.1% and the viability, T/C (compound 0.316 µM) was 16.4% and 21.9% and 12.8%.

From PubChem BioAssay AID2060484 (Molecular Pharmacology Branch, DTP, NCI, 2025)
